Results on six substances are retold here after patent publication US20210403924A1, “Method for selecting cells based on CRISPR/Cas-mediated integration of a detectable tag to a target protein” (Hoffmann-La Roche Inc., priority 2018, published 2021).

Assay type in all cases: cell-based
Series [1] relates to human TUBA1B locus. The series can be described thus: Knock-in Strategy V3: eGFP knock-in at TUBA1B, CD4 pool sorting and hygromycin B selection, FACS screen of clones for FITC signal. The note with it: HEK293A. Here is the method: In the Knock-in Strategy V3, the Cas9 nuclease and the sgRNA were combined on a single plasmid. This additionally contained a CD4 marker for selection. The donor plasmid corresponded to that of the strategy V2. Thus, the double selection was carried out via hygromycin B for the donor plasmid, as well as for CD4 for the nuclease/gRNA plasmid.
In the Knock-in Strategy V3, the cells were transfected with the circular or linear donor plasmid and a pCas-Guide EF1α-CD4 plasmid. This plasmid, referred to as “all-in-one”, encodes the Cas9 nuclease, a gRNA and CD4. The selection was made in this strategy via hygromycin B for the donor plasmid, and with CD4 for the Cas9 nuclease and the gRNA. Three different pCas-Guide-EF1α-CD4 plasmids were used, each coding for one of the three gRNAs. […] About 48 hours after transfection, the cells were stained with an APC-conjugated anti-CD4 antibody. HEK293A wild-type cells natively express no CD4, so these cells defined the APC negative gate. Only cells that had taken up the pCas-Guide-EF1α-CD4 plasmid expressed CD4 on the cell surface, which was detectable by FACS via the elevated APC signal after staining with the antibody. […] The transfected cells are between 63% and 86% in the APC positive gate. Comparing the samples with linear and circular donor plasmid from each gRNA, it was possible to see that proportionally more APC and, thus, CD4 positive cells were detected in the samples with the circular donor plasmid. From each transfection approximately 5×10^5 CD4 positive cells were deposited as a cell pool using FACS sorting (FIG. 16).
The cells were cultured after pool sorting for 24 h in 6-well plates. Next, selection with hygromycin B was performed for the donor plasmid for 10 days. Subsequently, single cells from each transfection were deposited in four 96-well plates. Differences in the FITC signal between the wild-type and the transfected samples were evident in the enlarged view of the histograms. […] Gating on FITC-positive cells was therefore almost impossible. To the extent possible, viable single cells were deposited from the FITC-positive gate (FIG. 17).
Three weeks after single cell deposition, the first screening of the clones for the FITC signal followed and, thus, the presence of eGFP in the FACS. Previously, an average growth rate of 43% had been determined microscopically. A total of 952 clones were screened, of which 33 were identified as potentially positive clones. This corresponded to an efficiency of 3.4%. No clones could be identified in the three samples 1L, 3L and 3Z. Again, it was possible to see that the circular donor plasmid samples yielded more potentially positive clones than did samples with the linearized donor plasmid (Table 7).
In the knock-in V3, the pCas9-Guide-EF1α-CD4 plasmid contains a CD4 cassette as a selection marker. To select the CD4-positive cells, the cells were harvested 48 hours after transfection and washed twice with PBS. Next, the cells were resuspended in 250 μL FACS buffer and 5 μL α-CD4-Alexa 647 antibody added. This corresponded to a final antibody concentration of 1.5 μg/mL. After one hour of incubation on ice in the dark, the cells were washed three times with FACS buffer and then measured. For pool sorting, approximately 1.5×10^5 CD4-positive cells per sample were sorted into a 15 mL Falcon in which 5 mL of complete medium had already been placed. Subsequently, the cells were centrifuged for 5 min. at 300 g, resuspended in 3 mL fresh complete medium and seeded into a 6-well plate. After 24 hours the cells were again adherent and could be selected with hygromycin B on the donor plasmid. Once the selected cells had matured, the single-cell deposition in the 96-well format was again carried out.
The methodology was used primarily for the screening of the generated clones. For this purpose, the medium was completely removed from the 96-well plates, the cells were detached with 25 μL Accutase and resuspended with 40 μL FACS buffer. […]

The test system of series [2] is human TUBA1B locus. The series can be described thus: Knock-in Strategy V1: eGFP knock-in at TUBA1B, puromycin single selection, FACS screen of clones for FITC signal. The note with it: HEK293A. The method, then:
In the Knock-in Strategy V1, a Cas9-encoding plasmid comprising a puromycin-resistance cassette was co-transfected with a circular donor plasmid without a selection marker as well as specific synthetic crRNA and tracrRNA. The selection was carried out exclusively with puromycin on the Cas9-encoding plasmid.
In the first knock-in strategy, the cells were transfected with the Cas9-PuroR plasmid, the circular donor plasmid, as well as specific, synthetic crRNA and tracrRNA. The selection was made exclusively on the Cas9 plasmid with puromycin for 10 days. Thereafter, single cells of the cells transfected with crRNA1 (SEQ ID NO: 07) or crRNA2 (SEQ ID NO: 08), respectively, were deposited in ten 96-well plates. […] The increased FITC signal can be attributed to the expression of eGFP, which is only possible if the eGFP sequence from the donor plasmid has been introduced in-frame into a translated region in the genome, since the start codon is missing.
The growth rate of the deposited single cells was determined microscopically after 3 weeks, and totaled 63%. Subsequently, the cells by FACS were analyzed for their FITC signal (results in Table 1).
(§1) Using FACS sorting, the transfected and partially already selected cells were sorted. These were harvested, washed with PBS and adjusted to a cell number of 1×10^6 cells/mL in FACS buffer. After the desired cell population had been gated and all settings made on the device for sorting, the selected cells could be […]. The single cell deposit was performed in 96-well format. The plates were stored with 200 μL of medium per well at 37° C. in order to temper the medium and to keep the cell's stress as low as possible. Each knock-in trial involved deposition in between 20 and 24 plates. The cells then needed about 3 weeks in the incubator at 37° C. and 5% CO2 for growth. All plates were analyzed microscopically to determine the growth rate and the clones were then examined for eGFP expression.
(§2) The methodology was used primarily for the screening of the generated clones. For this purpose, the medium was completely removed from the 96-well plates, the cells were detached with 25 μL Accutase and resuspended with 40 μL FACS buffer. 40 μL of cell suspension was transferred to a 96-well conical-bottomed plate and measured directly on the FACS Canto II from BD. The eGFP signals of the clones were always referenced with HEK293A wild-type cells. The evaluation was done with the FlowJo v10.0.7 software. Potentially positive clones with a distinct eGFP signal were expanded and further characterized.

Series [3] has as its system human TUBA1B locus. In words: Knock-in Strategy V2: eGFP knock-in at TUBA1B, puromycin and hygromycin B double selection, FACS screen of clones for FITC signal. The note with it: for Efficiency (potentially positive clones / clones examined) / Number of potential clones (total number of examined clones in parentheses): HEK293A. The method, then: In the Knock-in Strategy V2, a Cas9-encoding plasmid comprising a puromycin-resistance cassette was co-transfected with a circular donor plasmid with a hygromycin B-resistance cassette as well as specific, synthetic crRNA and tracrRNA. The selection was carried out as double selection with hygromycin B for the donor plasmid and puromycin for the Cas9-encoding plasmid.
In the Knock-in Strategy V2, the cells were transfected with the identical crRNAs and tracrRNAs, as well as the Cas9-PuroR plasmid as in the Knock-in Strategy V1. Each of the three crRNAs (SEQ ID NO: 07-09) was combined with the linearized or circular donor plasmid with the hygromycin B-resistance cassette. Selection was performed via puromycin for the Cas9 plasmid and hygromycin B for the donor plasmid for a total of 10 days. Four 96-well plates with FITC-positive, viable single cells were subsequently deposited from each transfection. Differences in the FITC signal between the wild-type and the transfected cells were evident in the enlarged view of the histograms. The proportion of FITC-positive cells was between 0.4% and 3.8%. […] The most intense signal was found in the sample of crRNA3 and the circular donor plasmid (FIG. 13).
After a three-week incubation in the incubator, the growth rate of the deposited single cells was determined microscopically. It averaged 34.3%. All grown clones were analyzed by FACS for their FITC signal. An eGFP expression in the cells leads to the detection of an increased FITC signal compared to the wild-type, i.e. non-transfected cells. A total of 118 potentially positive clones were identified from a total of 496 analyzed clones. This corresponded to an overall efficiency of […]. The proportion of potentially positive clones among the samples containing the circular donor plasmid was 33.3%, more than twice as high as that for the linearized donor plasmid at 15.3% (Table 4).
as §1, §2

The mark [4] stands for this setting: Plates from gate P3, circular donor plasmid.
The mark [5] stands for this setting: Plates from gate P4 (FITC-positive), circular donor plasmid.

With “gRNA2: TUBA1B-specific gRNA encoded on the pCas-Guide-EF1α-CD4 all-in-one plasmid, oligos SEQ ID NO: 03 and 04 (DNA 1 GATCGGGCCAGGCTGGTGTCCAGATG; DNA 2 AAAACATCTGGACACCAGCCTGGCCC; the letters are possibly those of the target site)”, the “Efficiency (potential clones / clones examined)” value with human TUBA1B locus [1] (Circular donor plasmid) came out at 6.5%; in the series on human TUBA1B locus [1] (Linear donor plasmid), 3.6%. Also, the “Number of potential clones (total number of examined clones in parentheses)” value (“Number of potential clones” below) in the series with human TUBA1B locus [1] (Circular donor plasmid) is on record as 14 (214); in the series on human TUBA1B locus [1] (Linear donor plasmid), 7 (195).
As for “crRNA2: TUBA1B-specific synthetic crRNA (Dharmacon), SEQ ID NO: 08, GGCCAGGCTGGTGTCCAGAT (synthetic crRNA bought from a supplier, chemistry not given here)”, the “Efficiency (potentially positive clones / clones examined)” value in the series on human TUBA1B locus [2] (setting [4]) was 0.25%; with human TUBA1B locus [2] (setting [5]) it was 14.7%; in the series with human TUBA1B locus [3] (Circular donor plasmid), 1%; in the series on human TUBA1B locus [3] (Linear donor plasmid) it was 0%. Also, the “Number of potentially positive clones (total number of examined clones in parentheses)” value with human TUBA1B locus [2] (setting [4]) is 1 (399); in the series on human TUBA1B locus [2] (setting [5]), 9 (64). Moreover, the “Number of potential clones” value with human TUBA1B locus [3] (Circular donor plasmid) is 1 (98); with human TUBA1B locus [3] (Linear donor plasmid) it was 0 (81).
Turning to “gRNA1: TUBA1B-specific gRNA encoded on the pCas-Guide-EF1α-CD4 all-in-one plasmid, oligos SEQ ID NO: 01 and 02 (DNA 1 GATCGGAGTGCATCTCCATCCACGTG; DNA 2 AAAACACGTGGATGGAGATGCACTCC; the letters are possibly those of the target site)”, in the series on human TUBA1B locus [1] (Circular donor plasmid), the “Efficiency (potential clones / clones examined)” value came out at 19.4% and the “Number of potential clones” value is listed as 12 (62). In the series on human TUBA1B locus [1] (Linear donor plasmid), the “Efficiency (potential clones / clones examined)” value worked out at 0% and the “Number of potential clones” value is recorded as 0 (195).
Regarding “gRNA3: TUBA1B-specific gRNA encoded on the pCas-Guide-EF1α-CD4 all-in-one plasmid, oligos SEQ ID NO: 05 and 06 (DNA 1 GATCGGAGCTCTACTGCCTGGAACAG; DNA 2 AAAACTGTTCCAGGCAGTAGAGCTCC; the letters are possibly those of the target site)”, in the series with human TUBA1B locus [1] (Circular donor plasmid), the “Efficiency (potential clones / clones examined)” value was determined as 0% and the “Number of potential clones” value was 0 (105). For the same substance, in the series with human TUBA1B locus [1] (Linear donor plasmid), the “Efficiency (potential clones / clones examined)” value stood at 0% and the “Number of potential clones” value is reported as 0 (212).
In the case of “crRNA3: TUBA1B-specific synthetic crRNA (Dharmacon), SEQ ID NO: 09, GAGCTCTACTGCCTGGAACA (synthetic crRNA bought from a supplier, chemistry not given here)”, in the series with human TUBA1B locus [3] (Circular donor plasmid), the “Efficiency (potentially positive clones / clones examined)” value is 60.7% and the “Number of potential clones” value was 37 (61). Besides, in the series on human TUBA1B locus [3] (Linear donor plasmid), the “Efficiency (potentially positive clones / clones examined)” value was determined as 39.3% and the “Number of potential clones” value is on record as 33 (84). Moreover, the “cells of the clones in the FITC-positive range” value in the series on human TUBA1B locus [3] (clones with circular donor plasmid, after long-term cultivation, FACS) was “over 87%”.
Regarding “crRNA1: TUBA1B-specific synthetic crRNA (Dharmacon), SEQ ID NO: 07, GAGTGCATCTCCATCCACGT (synthetic crRNA bought from a supplier, chemistry not given here)”, the “Efficiency (potentially positive clones / clones examined)” value in the series with human TUBA1B locus [2] (setting [4]) stood at 0.44%; in the series on human TUBA1B locus [2] (setting [5]), 16.1%; in the series with human TUBA1B locus [3] (Circular donor plasmid) it was 53.3%; in the series with human TUBA1B locus [3] (Linear donor plasmid) it was 7.2%. The “Number of potentially positive clones (total number of examined clones in parentheses)” value with human TUBA1B locus [2] (setting [4]) is on record as 2 (452); in the series with human TUBA1B locus [2] (setting [5]) it was 11 (68). Further, the “Number of potential clones” value in the series on human TUBA1B locus [3] (Circular donor plasmid) is given as 40 (75); in the series with human TUBA1B locus [3] (Linear donor plasmid), 7 (97).
